Entries after “also recorded” stand apart in the source; their conditions may differ.
Experiments:
SOD1 [1] = molecular target: SOD1 (Homo sapiens, UniProt P00441); assay: Immunofluorescence staining of SOD1 aggregation and misfolded SOD1; assay type: cell-based
Description: (§1) Cells on coverslip were washed with PBS, fixed with 4% PFA at room temperature for 30 minutes, and then infiltrated with 0.1% Triton X-100/PBS for 10 minutes. The cells were treated with blocking solution (anti-Human Antibody 1:500 dilution in PBS) for 1 hour, and then cells were reacted with anti-pan SOD1 (1:400 dilution), misfolded SOD1 (B8H10; 1:200 dilution in blocking solution) at 4° C. overnight. Finally, the cells were reacted with FITC and rhodamine-conjugated secondary antibody at 4° C. for 6 hours. Nuclei were stained with 4,6-diamidino-2-phenylindole (DAPI), and endoplasmic reticula (ERs) were stained with ER-Tracker Red dye for 10 minutes. The cells were washed 3 times with PBS, and then coverslips were mounted with mounting solution [H-5501; Vector Laboratories (Burlingame, CA, USA)] and analyzed by fluorescence microscopy (Zeiss).
(§2) GFP-SOD1 (WT, G85R, G93A), non-tagged SOD1 (WT, A4V, G37R, G85R, G93A) and tdTomato-TDP43 expression vectors were purchased from Addgene (Cambridge, MA, USA). Transfection was performed using Jet-PEI reagent (JetPEI; Polyplus transfection, New York, NY, USA) according to the manufacturer's protocol. Briefly, vectors were mixed with JetPEI reagent in 150 mM NaCl buffer, and then mixture was reacted for 15 minutes. The mixture was added to cells in serum-free medium and reacted for 4 hours. After reaction, the cells were replaced with a culture medium supplemented with 10% FBS.

SOD1 [2] = assay: as above; assay type: cell-based, human; details: Table 1; IF staining of SOD1
Description: as §1, §2

[3] = tested on: WT-SOD1 and mutant SOD1-GST (A4V, G37R, G85R, G93A); assay: ELISA compound screening for binding inhibitor between WT-SOD1 and mutant SOD1; design: species or system human
Description: For compound screening, the present inventors applied an ELISA assay system. To select a binding inhibitor between WT-SOD1 and mutant SOD1, the present inventors used 0.5% paraformaldehyde (PFA) to fix WT-SOD1 recombinant protein on a 96-well plate. The plate was dried, washed with phosphate-buffered saline (PBS), and reacted with the compounds at a final concentration of 50 μM, and then mutant SOD1-GST (A4V, G37R, G85R, G93A) proteins were added. After 2 hours of reaction, the 96-well plate was washed with PBS and blocked with 3% skim milk to prevent non specific reaction. The plate was reacted with anti-GST antibody (diluted at 1:10,000) for 1 hour, and then reacted with anti-mouse IgG-HRP (diluted at 1:50,000) for 1 hour. After washing twice, the plate was reacted with a 3,3′,5,5′-tetramethylbenzidine (TMB) solution (Calbiochem) for 30 minutes and a stop solution (1N H2SO4) for 30 minutes. Finally, the present inventors analyzed values using an ELISA reader (450 nm absorbance). Negative control (−; red line) was reacted without mutant SOD1, and positive control (+; blue line) was reacted with mutant SOD1 without the compounds.
To prepare recombinant proteins, human SOD1 (WT, A4V, G37R, G85R, G93A) was added to EcoRI and HindIII sites of pGEX-TEV vector, an improved vector made by adding a TEV protease cleavage site to pGEX-4T1 (Invitrogen). The recombinant proteins were expressed as GST-fusion proteins in Escherichia coli (E. coli) strain BL21 (DE3). The proteins were purified by glutathione-affinity chromatography.

SOD1^G93A-Tg mice [4] = assay: In vivo drug treatment of ALS model mice (grip strength, behaviour, histology, survival); design: species or system mouse
Description: An experiment was performed in a facility approved by the Association for Laboratory Animal Care Assessment and Accreditation in accordance with the animal policy approved by Busan National University. B6SJL-Tg (SOD1^G93A) mice were purchased from Jackson Laboratory (Stock No: 002726). All mice were maintained under temperature and light-controlled conditions (20˜23° C., light-dark cycle 12 hr-12 hr) and were provided with sterile food and water.
Vehicle (DMSO) and SLC-B036 (10 mg/kg, 20 mg/kg) were administered to 12-week-old or 14-week-old SOD1^G93A mice via intraperitoneal injection twice weekly for 6 weeks. Control mice were treated under the same conditions. For histological analysis, mice were sacrificed at 18 weeks. After dissection of mice, spinal cord was fixed with 4% paraformaldehyde for 48 hours according to basic tissue processing procedures, and embedded in a paraffin block. An embedded tissue (cervical region of the spinal cord) was cut into 5 μm with a Leica microtome, and transferred to an adhesive-coated slide (Marienfeld laboratory glassware, Germany). After deparaffinization and rehydration, the slide was stained with hematoxylin and eosin to determine the number of spinal nerves.
For behavioral experiment, grip strength was checked every 2 weeks using a grip strength meter. The mice were allowed to grasp a tension bar with their forelimbs, and then their tails were slowly pulled until they released the bar. To observe motility, respiration, and quadriplegia of the mice, image analysis was performed at the end of administration (18-20 weeks).

normal human fibroblasts = assay: Cell viability measurement (MTT), normal fibroblasts; assay type: cell-based; details: for cytotoxic effect in normal fibroblasts: MTT, FIG. 4E, FIG. 9B
Description: HEK293 cells were purchased from American Type Culture Collection (ATCC, Manassas, VA, USA) and maintained at 37° C. and 5% CO2 in DMEM liquid medium including 10% fetal bovine serum and 1% penicillin-streptomycin. SK—N—SH cells were purchased from Korean Cell Line Bank (KCLB, Seoul, South Korea) and maintained in MEM medium including 10% fetal bovine serum, 1% antibiotic, 25 mM HEPES, and 300 mg/L L-Glu. Human fibroblasts (person) were purchased from Coriell Cell Repositories (New Jersey, USA) and maintained in EMEM including 15% FBS, 2 mM Glutamine, and 26 mM HEPES without antibiotics. Thapsigargin (ER calcium scavenger: CAS 67526-95-8) was purchased from Calbiochem (Darmstadt, Germany). CoCl2 (hypoxia-inducer: C8661) was purchased from Sigma Aldrich (St, Louis, Mo, USA).
To check cells viability, the cells were reacted with 0.5 mg/ml MTT solution (475989; Merck, Darmstadt, Germany) at 37° C. for 4 hours. After removing residual solution and washing with PBS, precipitate was dissolved in 200 μl DMSO, and quantified by measuring absorbance at 540 nm.

SOD1^G93A-Tg mice [5] = assay: In vivo drug treatment of ALS model mice (grip strength, behaviour, histology, survival); design: species or system mouse; details: dosing from 14 weeks, observed at 17-weeks of age; FIGS. 7C and 8C

SOD1 (Homo sapiens, UniProt P00441), sequence (P00441 2-154): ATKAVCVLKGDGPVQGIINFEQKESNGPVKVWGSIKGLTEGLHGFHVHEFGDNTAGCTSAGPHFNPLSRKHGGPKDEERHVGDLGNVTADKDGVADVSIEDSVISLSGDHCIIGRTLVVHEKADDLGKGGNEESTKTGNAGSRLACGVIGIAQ

Q: Which “misfolded SOD1 / SOD1 aggregation induced by hypoxic stress” value (SOD1 [1]; CoCl2, FIG. 6C) does the source give for `COc1cc(/C=C/C(=O)O[C@H]2Cc3cc4ccc(=O)oc4cc3OC2(C)C)ccc1O` [PRG-A-01, (S)-8,8-dimethyl-2-oxo-7,8-dihydro-2H,6H-pyrano[3,2-g]chromen-7-yl (E)-3-(4-hydroxy-3-methoxyphenyl) acrylate] here?
A: blocks SOD1 aggregation induced by hypoxic stress; also recorded: reduced

Q: And the “SOD1 aggregation induced by TDP-43 overexpression, immunofluorescence” value (SOD1 [1]; FIG. 5A)?
A: inhibited; also recorded: reduce the SOD1 aggregation as well as TDP-43

Q: What about the Immuno-fluorscence (SOD1 [2]) of the same compound?
A: Effect ○

Q: And the ELISA ([3]; Table 1, compounds at final concentration of 50 μM)?
A: Effect ○

Q: What about the “binding inhibition in ELISA compound screening” value ([3]; WT-SOD1 fixed on plate, GST-tagged mutant SOD1s, FIG. 3A) of the same compound?
A: specific for mutation

Q: What about the “dose dependence of effect on grip strength” value (SOD1^G93A-Tg mice [4]; 20 mg/kg more effective than 10 mg/kg, FIGS. 8A and 8B) of the same compound?
A: dose-dependent effect

Q: And the “effects in ALS model mice” value (SOD1^G93A-Tg mice [4]; FIGS. 11A and 11B, summary statements)?
A: protective effect against muscle weakness and movement disorder

Q: What about the lifespan extension (SOD1^G93A-Tg mice [4]; Kaplan-Meier survival, FIG. 8D) of the same compound?
A: 10 days

Q: And the In vivo (SOD1^G93A-Tg mice [4]; Table 1, ALS model mice)?
A: Effect ○

Q: What about the “muscle strength compared to wild-type mice” value (SOD1^G93A-Tg mice [4]; i.p. twice a week, administration from 12 weeks of age, grip strength, FIG. 7B) of the same compound?
A: about 70%

Q: What about the “viability of cervical spinal nerves, histological analysis” value (SOD1^G93A-Tg mice [4]; spinal cord, H&E, FIG. 7D) of the same compound?
A: intraspinal nerves were maintained and high

Q: What about the “muscle function, late treatment” value (SOD1^G93A-Tg mice [4]; starting at 14 weeks of age, forelimb grip strength, FIGS. 8A and 8B) of the same compound?
A: good effect on muscle function

Q: What about the “cytotoxic effect in normal fibroblasts” value (normal human fibroblasts) of the same compound?
A: not cytotoxic

Q: And the “cytotoxic effect in normal fibroblasts” value (normal human fibroblasts; listed as SLC-B036)?
A: did not exhibit cytotoxic effect

Q: And the “Toxicity (MTT)” value (normal human fibroblasts; Table 1, cell type not given, neurons (FIG. 9A) and normal fibroblasts (FIG. 9B))?
A: No

Q: And the “motor capacity, behavioral observation” value (SOD1^G93A-Tg mice [5])?
A: still had motor capacity

Reference: patent US12448393B2, “Use of novel compound, for preventing, improving or treating amyotrophic lateral sclerosis” (PRG S&TECH INC., priority 2019, dated 2025)
